Consider 12 compounds from US4456604A, “1-(3-Halo-2-pyridinyl) piperazine” (Merck & Co., Inc., priority 1982, dated 1984).

One test concerns the target α1-adrenergic receptor. Nature of the test: α1-adrenergic receptor binding ([3H] prazosin binding site, calf cerebral cortex). Particulars: for Ki: [3H] prazosin binding site, calf cerebral cortex; for affinity for the α1-adrenergic receptors (in words): of the compounds tested. Here is the method:
(§1) The α1 - and α2 -adrenergic receptor binding was determined for 1-(3-halo-2-pyridinyl)piperazines and a number of other structurally related compounds shown in Table I.
Extent of binding to the α1 -adrenergic receptor was determined by the method of Greengrass and Bremner, Eur. J. Pharmacol., 55, 323 (1979) and is expressed in Table I as Ki, representing the affinity of each compound for the [^3 H] prazosin binding site in calf cerebral cortex.

Test [1] concerns the target T1, α2-adrenergic receptor (Bos taurus, UniProt Q28838).
T1 construct: from tissue; host or cells: calf cerebral cortex
T1 sequence (Q28838 1-468): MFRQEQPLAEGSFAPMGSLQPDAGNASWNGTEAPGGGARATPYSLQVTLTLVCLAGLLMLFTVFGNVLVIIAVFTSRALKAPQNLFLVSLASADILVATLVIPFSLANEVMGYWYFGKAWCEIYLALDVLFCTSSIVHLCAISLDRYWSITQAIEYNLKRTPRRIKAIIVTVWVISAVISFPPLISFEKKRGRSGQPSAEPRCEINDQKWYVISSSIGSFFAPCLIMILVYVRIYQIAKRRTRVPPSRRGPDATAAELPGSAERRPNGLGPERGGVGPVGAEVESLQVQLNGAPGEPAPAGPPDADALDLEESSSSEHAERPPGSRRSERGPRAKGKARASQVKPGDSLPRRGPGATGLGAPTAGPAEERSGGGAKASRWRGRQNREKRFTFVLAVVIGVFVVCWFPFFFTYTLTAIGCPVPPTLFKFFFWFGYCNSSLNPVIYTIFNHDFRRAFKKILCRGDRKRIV
The test can be described thus: α2-adrenergic receptor binding ([3H] clonidine binding site, calf cerebral cortex). Particulars: for affinity for the α2-adrenergic receptors (in words): of the compounds tested, with the exception of compound 5. The protocol: as §1
(§2) Binding to the α2 -adrenergic receptor was determined by the method of Lyon and Randall, Life Sciences, 26, 1121 (1980) and also is expressed in Table I as Ki representing the affinity of each compound for the [^3 H] clonidine binding site in calf cerebral cortex.

The test system of a further test is norepinephrine reuptake. Particulars: cited from earlier work.
A further test deals with depression. Particulars: in vivo; cited from earlier work.
The test system of a further test is α2-adrenergic receptors. The note with it: cited from earlier work.
Test [2] has as its system α1- or α2-adrenergic receptors. The note with it: Clineschmidt et al. 1979; cited from earlier work.
In test [3] the test system is α2-adrenergic receptor. Nature of the test: α2-adrenergic receptor binding ([3H] clonidine binding site, calf cerebral cortex). The note with it: compared to any of the other tested compounds. The protocol: as §1, §2
The test system of test [4] is locomotor depressant effects of methyldopa. Particulars: rats; Clineschmidt et al. 1980; cited from earlier work.
In test [5] the test system is clonidine-induced sedation. The note with it: man; Autret et al. 1977; cited from earlier work.
Test [6] relates to sedation produced by clonidine. Particulars: Drew et al. 1979; cited from earlier work.
The mark [7] stands for this setting: [3H] clonidine binding site, calf cerebral cortex, read-out: Adrenergic Binding Ki α2.

Structures are written as SMILES. Read-outs that look alike come from different tables or passages of the source.

Regarding `Clc1cccc(N2CCNCC2)n1` [Compound 6], the figures for the Ki at α1-adrenergic receptor and on α2-adrenergic receptor [1] (setting [7]) were 500 nM and 18 nM, respectively.
On to `CN1CCN2c3ccccc3Cc3ccccc3C2C1` (centres unmarked) [Mianserin], for which, in the test with norepinephrine reuptake, the “in vivo norepinephrine reuptake inhibiting properties” value is listed as “minimal in vivo norepinephrine reuptake inhibiting properties”. The clinical antidepressant effectiveness result in the test on depression is given as “clinically effective antidepressant”. Moreover, in the test with α2-adrenergic receptors, the α2-adrenergic receptor blockade entry was “blocks α2 -adrenergic receptors”. The “selectivity for α1- or α2-adrenergic receptors” value in test [2] is listed as “fails to exhibit any important selectivity for α1 - or α2 -adrenergic receptors”.
Consider `Ic1cccnc1N1CCNCC1` [Compound 4], for which the Ki (in general, the dissociation constant of the complex between target and ligand, obtained from inhibition or displacement) came to 1600 nM on α1-adrenergic receptor and 42 nM on α2-adrenergic receptor [1] (setting [7]).
Take `Clc1cccnc1N1CCNCC1` [Compound 2, 1-(3-chloro-2-pyridinyl)piperazine]: at α1-adrenergic receptor, the affinity, expressed as Ki, was 1800 nM and the “affinity for the α1-adrenergic receptors (in words)” value was “weakest affinity (highest Ki)”. Further, at α2-adrenergic receptor [1] (setting [7]), the Ki amounted to 7.9 nM. Moreover, on α2-adrenergic receptor [1], the “affinity for the α2-adrenergic receptors (in words)” value was “strongest affinity (lowest Ki)”. The “selectivity or ratio of Kiα1/Kiα2 (in words)” value (“selectivity or ratio” below) with α2-adrenergic receptor [3] is listed as “greatest selectivity”.
Consider `COC(=O)[C@@H]1[C@H]2C[C@H]3c4[nH]c5ccccc5c4CCN3C[C@@H]2CC[C@@H]1O` [yohimbine], for which the “effect on locomotor depressant effects of methyldopa” value in [4] is reported as “antagonizes”. Further, in test [5], the “effect on clonidine-induced sedation” value is given as “reduce clonidine-induced sedation in man”. Further, in test [6], the “effect on sedation produced by clonidine” value is listed as “antagonizes the sedation produced by clonidine”.
For the compound `Clc1cncc(N2CCNCC2)n1` [Compound 9], the Ki on α1-adrenergic receptor was 2400 nM; on α2-adrenergic receptor [1], 127 nM.
As for `Clc1ccc(N2CCNCC2)nc1` [Compound 8], the Ki on α2-adrenergic receptor [1] was 1000 nM.
Take `Fc1cccnc1N1CCNCC1` [Compound 1, 1-(3-fluoro-2-pyridinyl)piperazine]: on α1-adrenergic receptor, the Ki is 2300 nM and the “affinity for the α1-adrenergic receptors (in words)” value is listed as “weakest affinity (highest Ki)”. Besides, at α2-adrenergic receptor [1], affinity was put at a Ki of 8.3 nM and the “affinity for the α2-adrenergic receptors (in words)” value is listed as “strongest affinity (lowest Ki)”. Besides, in the test on α2-adrenergic receptor [3], the “selectivity or ratio” value is “greatest selectivity”.
As for `CN1CCN(c2ncccc2Br)CC1` [Compound 5], the Ki was found to be 160 nM on α1-adrenergic receptor and 2.9 nM at α2-adrenergic receptor [1] (setting [7]).
For `Clc1nccnc1N1CCNCC1` [Compound 10], in that order: 26000 nM and 160 nM.
With `c1ccc(N2CCNCC2)nc1` [Compound 7], the figures for the Ki on α1-adrenergic receptor and at α2-adrenergic receptor [1] (setting [7]) were 2400 nM and 37 nM, respectively.
As to `Brc1cccnc1N1CCNCC1` [Compound 3, 1-(3-bromo-2-pyridinyl)piperazine], at α1-adrenergic receptor, the affinity, expressed as Ki, was 1480 nM and the “affinity for the α1-adrenergic receptors (in words)” value is “weakest affinity (highest Ki)”. Besides, the Ki at α2-adrenergic receptor [1] (setting [7]) came out at 11 nM. At α2-adrenergic receptor [1], the “affinity for the α2-adrenergic receptors (in words)” value was “strongest affinity (lowest Ki)”. For the same compound, the “selectivity or ratio” value with α2-adrenergic receptor [3] is recorded as “greatest selectivity”.
